According to patent publication US7078395B1, “Methods for treating or preventing cancer by preventing, inhibiting or arresting cell cycling” (priority 1999, dated 2006):
Values joined by “and” are separate entries in the source; they are usually repeats but may differ in a detail not shown here. Equal values may be shown once.

Legend:
Meth A sarcoma = conditions: 100 mg/kg, p.o., every other day, 12 day, CH3 mice (10); cited from earlier work
B16 melanoma = conditions: 100 mg/kg, p.o., every other day, 12 day, CH3 mice (10); cited from earlier work
[1] = tested on: MCF-7 breast cancer cells; conditions: reported by Seegers et al. (8); cited from earlier work
[2] = tested on: MDA-MB-435 breast cancer cells; conditions: oral, 75 mg/kg/day for 29 days, SCID mice (11); cited from earlier work
MCF7 cells [3] = assay: Proportion of cells in mitosis (PI stained cytospins, confocal microscopy); format: cell-based; conditions: 24 hours (control 4%)
Protocol: To determine the proportion of cells in mitosis, drug treated cells were collected by trypsinisation and cytospins prepared. Cells were fixed in ice cold methanol for 5 minutes, air dried and DNA was stained using propidium iodide (PI) (0.1 mg/ml in phosphate buffered saline (PBS) containing 10% (v/v) newborn calf serum and 0.05% (w/v) sodium azide). Cells were analysed by confocal microscopy using a Zeiss Axiovert 100 M microscope equipped with the LSM 510 confocal system (Zeiss, Jena, Germany).
Effect of estrone derivatives on mitosis in MCF7 cells. MCF7 cells were treated with the indicated compounds for 24 hours. Cells were recovered by trypsinisation and cytospins prepared. DNA was stained with PI and cells in mitosis (i.e., with condensed chromosomes) determined as a percentage of total cells.

[4] = tested on: MCF-7 breast cancer cells; assay: Irreversible inhibition of cell growth, Stage 1 and Stage 2 (Coulter cell counter); format: cell-based; conditions: for effect on cell growth compared with controls, Stage 1: 5 μm and 1 μm; for effect on cell growth compared with controls, Stage 1 / cell numbers, % of the control cell number, Stage 1: 6 days; for effect on cell numbers, Stage 2 (irreversible growth inhibition): re-seeded after 6-day treatment, further 6 days without drug
Protocol: MCF-7 breast cancer cells were seeded into multi-well culture plates at a density of 10^5 cells/well. Cells were allowed to attach and grown until about 30% confluent when they were treated as follows:
Cells were grown for 6 days in growth medium containing the above drugs with changes of medium/drug every 3 days. At the end of this period cell numbers were counted using a Coulter cell counter.
After treatment of cells for a 6-day period with the above drugs cells were re-seeded at a density of 10^4 Cells/well. No further treatments were added. Cells were allowed to continue to grow for a further 6 days in the presence of growth medium. At the end of this period cell numbers were again counted.
Stages 1 and 2 described above were repeated using Control—no treatment, EMATE 20 μM and EMATE 5 μM.
MCF-7 breast cancer cells were seeded into multi-well culture plates at a density of 10^5 cells/well. Cells were allowed to attach and grown until about 30% confluent when they were treated as follows: • Control—no treatment • Compound of Interest (COI) 20 μM
Cells were grown for 6 days in growth medium containing the COI with changes of medium/COI every 3 days. At the end of this period cell numbers were counted using a Coulter cell counter.
After treatment of cells for a 6-day period with the COI cells were re-seeded at a density of 10^4 cells/well. No further treatments were added. Cells were allowed to continue to grow for a further 6 days in the presence of growth medium. At the end of this period cell numbers were again counted.

[5] = tested on: MCF-7 breast cancer cells; assay: Cell morphology by photomicrographs; format: cell-based
Protocol: (§1) MCF-7 (ER+) and MDA-MB-231 (ER−) breast cancer cells were obtained from the American Type Culture Collection (Rockville, Md.). Cells were routinely cultured in 25 cm^2 culture flasks in Eagle's minimum essential medium (EMEM) with Hepes buffer (20 mM). This medium was supplemented with L-glutamine (2 mM), sodium hydrogen carbonate (10 mM), 1% non-essential amino acids and 5% (v/v) foetal calf serum (FCS). Before adding test compounds, cells were washed with phosphate-buffered saline (PBS) and treatments added in phenol-red free medium containing 2% stripped FCS and supplements. The effects of 2-MeOE1 or 2-MeOEMATE on the growth of MCF-7 cells was assessed using a Cell Titer 96 cell proliferation assay (Promega, Southampton, Hants, UK) according to the manufacturers' instructions. For this, cells (5000 per well) were cultured in medium containing phenol-red and 10% FCS and were exposed to a drug for 4 days before the assay was performed. For MDA-MB-231 cells, cell numbers were determined using a Coulter counter.
Photomicrographs of control and treated cells were taken under normal conditions of light and exposure using an Olympus SL35 Type 12 camera under an Olympus CK2 microscope (×100 magnification).

[6] = rats, oral (16); cited from earlier work
CAMA1 cells [7] = assay: TUNEL assay; format: cell-based; conditions: CAMA1, 500 nM for 72 hours
Protocol: (§2) DNA content was determined by flow cytometric analysis of propidium iodide stained cells and TdT-mediated dUTP-nick end labelling (TUNEL), respectively, as described (20). The proportion of cells in G2/M phase of the cell cycle was calculated as a proportion of cells with […] DNA content. The proportion of cells with <G1 DNA content was calculated as a percentage of total cells.
(§3) We used the TUNEL assay to confirm that the cell death detected by flow cytometry of PI stained cells was due to apoptosis. Following exposure to 2-EtEMATE (500 nM for 72 hours) there was a significant increase in the proportion of CAL51 and CAMA1 cells undergoing apoptosis (60% and 37% TUNEL positive cells, respectively) (FIG. 16). By contrast, there was only a modest increase in TUNEL positivity in MCF7 or ZR-75-l cells (7% and 10%, respectively) treated with 2-EtEMATE at this concentration.

ZR-75-1 cells [8] = assay: TUNEL assay; format: cell-based; conditions: ZR-75-1, 500 nM for 72 hours
Protocol: as §2, §3

CAL51 cells [9] = assay: TUNEL assay; format: cell-based; conditions: CAL51, 500 nM for 72 hours
Protocol: as §2, §3

MCF7 cells [10] = assay: TUNEL assay; format: cell-based; conditions: MCF7, 500 nM for 72 hours
Protocol: as §2, §3

[11] = tested on: MCF7, ZR-75-1, CAL51 and CAMA1 cells; assay: Microtitre plate growth inhibition assay (FIG. 14); format: cell-based
CAMA1 cells [12] = assay: DNA content by flow cytometry of propidium iodide stained cells; format: cell-based; conditions: CAMA1, 500 nM
Protocol: (§4) MCF7, CAL51, CAMA1 and ZR-75-1 breast cancer derived cell lines were obtained from ATCC (MCF7, CAMA1, ZR-75-1) or from the Dutrillaux laboratory (CAL51) (22) and maintained in Dulbecco's modified Eagle's medium (DMEM) supplemented with 10% (v/v) fetal calf serum and antibiotics.
as §2

ZR-75-1 cells [13] = assay: as above; format: cell-based; conditions: ZR-75-1, 500 nM
Protocol: as §4, §2

CAL51 cells [14] = assay: as above; format: cell-based; conditions: CAL51, 500 nM
Protocol: as §4, §2

MCF7 cells [15] = assay: as above; format: cell-based; conditions: MCF7, 500 nM
Protocol: as §4, §2

[16] = tested on: nitrosomethylurea-induced mammary tumours; assay: Growth of NMU-induced mammary tumours in intact rats; format: in vivo, rat; conditions: 20 mg/kg/day, p.o., 11 days, individual animals
Protocol: The effect of 2-MeOEMATE on mammary tumour growth was examined in a preliminary study using Ludwig rats (Harlan Olac, Bicester, UK) in which tumours were induced by inoculation of NMU. Tumour development was monitored regularly and when 0.5-1.0 cm^3 in volume, animals received vehicle (propylene glycol, 200 μl/day, p.o.), 2-MeOEMATE (20 mg/kg/day, p.o.) or 2-MeOE1 (20 mg/kg/day, p.o.) daily for an 11 day period. Tumour length and width was measured with callipers and tumour volumes calculated as described (21).

[17] = tested on: MCF-7 breast cancer cells; assay: Cell Titer 96 cell proliferation assay, 4-day drug exposure; format: cell-based; conditions: 4 days
Protocol: as §1

## COc1cc2c(cc1O)CC[C@@H]1[C@@H]2CC[C@]2(C)[C@@H](O)CC[C@@H]12 [2-MeOE2, 2-methoxyoestradiol]
Meth A sarcoma
  reduction of tumour growth: 57%
B16 melanoma
  reduction of tumour growth: 83%
[1]
  concentrations cytotoxic to MCF-7 breast cancer cells: ≥ 1 μm
[2]
  reduction of tumour volumes compared with untreated controls: 60%
  toxic side effects: No toxic side effects were detected

## CCc1cc2c(cc1O)CC[C@@H]1[C@@H]2CC[C@]2(C)C(=O)CC[C@@H]12 [2-EtE1, 2-Ethylestrone, reference compound]
MCF7 cells [3]; 500 nM
  mitotic cells, percentage of total cells: 4%
MCF7 cells [3]; 5 μM
  mitotic cells, percentage of total cells: 6%
[4]
  effect on cell growth compared with controls, Stage 1: little effect on cell growth
  effect on cell numbers, Stage 2 (irreversible growth inhibition): little effect on cell numbers

## CC12CCC3c4ccc(OS(N)(=O)=O)cc4CCC3C1CCC2=O (stereo not shown) [EMATE, oestrone-3-O-sulphamate]
[5]; 10 μM
  effect on cell morphology: did not affect cell morphology
[4]; 5 μM
  cell number, Stage 1: EMATE 5 μM = 139% control
  cell number, Stage 2: EMATE 5 μM = 98% control
[4]; 20 μM
  cell number, Stage 1: EMATE 20 μM = 119% control
  cell number, Stage 2: EMATE 20 μM = 103% control
[6]
  oral uterotrophic activity relative to estradiol: 100 times

## C[C@]12CC[C@@H]3c4ccc(O)cc4CC[C@H]3[C@@H]1CCC2=O [Oestrone]
[5]; 10 μM
  effect on cell morphology: did not affect cell morphology

## CCc1cc2c(cc1OS(N)(=O)=O)CCC1C2CCC2(C)C(=O)CCC12 (stereo not shown) [2-EtEMATE, 2-Ethylestrone-3-O-sulfamate]
CAMA1 cells [7]
  TUNEL positive cells: 37%
ZR-75-1 cells [8]
  TUNEL positive cells: 10%
CAL51 cells [9]
  TUNEL positive cells: 60%
MCF7 cells [10]
  TUNEL positive cells: 7%
MCF7 cells [3]; 500 nM
  mitotic cells, percentage of total cells: 29%
MCF7 cells [3]; 5 μM
  mitotic cells, percentage of total cells: 49%
[4]; 1 m (so in the source)
  cell numbers, % of the control cell number, Stage 1: 50%
[4]; 5 μm
  cell numbers, % of the control cell number, Stage 1: 36%
[4]
  effect on cell numbers, Stage 2 (irreversible growth inhibition): severely growth restricted
[11]
  lowest dose that gave significant growth inhibition in each cell line: 500 nM
CAMA1 cells [12]; 24 hours
  <G1 DNA content, percent of total cells: 4%
  G1/S, percentage of total cells with a 2N to 4N DNA content: 33%
CAMA1 cells [12]; 48 hours
  <G1 DNA content, percent of total cells: 16%
  G1/S, percentage of total cells with a 2N to 4N DNA content: 25%
  G2/M, percentage of total cells with a 2N to 4N DNA content: 75%
CAMA1 cells [12]; 72 hours
  <G1 DNA content, percent of total cells: 36%
  G1/S, percentage of total cells with a 2N to 4N DNA content: 33%
  G2/M, percentage of total cells with a 2N to 4N DNA content: 67%
CAMA1 cells [12]; 96 hours
  G1/S, percentage of total cells with a 2N to 4N DNA content: 33%
  G2/M, percentage of total cells with a 2N to 4N DNA content: 67%
ZR-75-1 cells [13]; 24 hours
  <G1 DNA content, percent of total cells: 1%
  G1/S, percentage of total cells with a 2N to 4N DNA content: 84%
  G2/M, percentage of total cells with a 2N to 4N DNA content: 15%
ZR-75-1 cells [13]; 48 hours
  <G1 DNA content, percent of total cells: 6%
  G1/S, percentage of total cells with a 2N to 4N DNA content: 60%
  G2/M, percentage of total cells with a 2N to 4N DNA content: 40%
ZR-75-1 cells [13]; 72 hours
  <G1 DNA content, percent of total cells: 12%
  G1/S, percentage of total cells with a 2N to 4N DNA content: 37%
  G2/M, percentage of total cells with a 2N to 4N DNA content: 60% and 63%
ZR-75-1 cells [13]; 96 hours
  <G1 DNA content, percent of total cells: 9%
  G1/S, percentage of total cells with a 2N to 4N DNA content: 20%
  G2/M, percentage of total cells with a 2N to 4N DNA content: 80%
CAL51 cells [14]; 24 hours
  <G1 DNA content, percent of total cells: 2%
  G1/S, percentage of total cells with a 2N to 4N DNA content: 38%
CAL51 cells [14]; 48 hours
  <G1 DNA content, percent of total cells: 10%
  G1/S, percentage of total cells with a 2N to 4N DNA content: 18%
  G2/M, percentage of total cells with a 2N to 4N DNA content: 82%
CAL51 cells [14]; 72 hours
  <G1 DNA content, percent of total cells: 21%
  G1/S, percentage of total cells with a 2N to 4N DNA content: 32%
  G2/M, percentage of total cells with a 2N to 4N DNA content: 68%
CAL51 cells [14]; 96 hours
  G1/S, percentage of total cells with a 2N to 4N DNA content: 23%
  G2/M, percentage of total cells with a 2N to 4N DNA content: 77%
MCF7 cells [15]; 24 hours
  <G1 DNA content, percent of total cells: 5%
  G1/S, percentage of total cells with a 2N to 4N DNA content: 63%
  G2/M, percentage of total cells with a 2N to 4N DNA content: 37%
MCF7 cells [15]; 48 hours
  <G1 DNA content, percent of total cells: 5%
  G1/S, percentage of total cells with a 2N to 4N DNA content: 38%
MCF7 cells [15]; 72 hours
  <G1 DNA content, percent of total cells: 12%
  G1/S, percentage of total cells with a 2N to 4N DNA content: 34%
  G2/M, percentage of total cells with a 2N to 4N DNA content: 66%
MCF7 cells [15]; 96 hours
  <G1 DNA content, percent of total cells: 8%
  G1/S, percentage of total cells with a 2N to 4N DNA content: 29%
  G2/M, percentage of total cells with a 2N to 4N DNA content: 71%

## COc1cc2c(cc1O)CC[C@@H]1[C@@H]2CC[C@]2(C)C(=O)CC[C@@H]12 [2-MeOE1, 2-methoxyoestrone, reference compound]
[16]
  reduction in tumour volume: little effect on tumour growth and no change in tumour volume and 25%
[17]; 0.1 μM
  inhibition of proliferation of MCF-7 cells: little effect
[17]; 1.0 μM
  inhibition of proliferation of MCF-7 cells: little effect
[17]; 10 μM
  inhibition of proliferation of MCF-7 cells: 19%
[5]; 1 μM, 24 h
  effect on cell morphology: little effect on cell morphology
[4]
  effect on cell growth compared with controls, Stage 1: little effect on cell growth
  effect on cell numbers, Stage 2 (irreversible growth inhibition): little effect on cell numbers
